Tests used:
[1] = tested on: B16 melanoma cells; assay: i.v. injected B16 melanoma in mice (lung tumor weight, pulmonary metastatic foci); format: in vivo; details: for tumor weight (wet lung weight at day 14) vs control mice: 24 hours before tumor cell inoculation, FIG. 4
Method: The anti-tumor properties of N-α-MH on i.v. injected B16 melanoma cells in mice were evaluated. One of N-α-MH, HDC, and a positive control were administered to the mice 24 hours before tumor cell inoculation as described by Hellstrand et al., J. Immunol., vol. 145, pp 4365-4370. Macroscopically visible pulmonary metastatic foci were counted fourteen days after the tumor cell inoculation. The tumor weight is the wet weight at day 14 of lungs from mice injected with tumor cells on day 0 as described by Hellstrand et al., J. Immunol., vol. 145, pp 4365-4370.

[2] = in the blood; cited from earlier work
[3] = tested on: human mononuclear phagocytes; assay: fMLF-induced oxygen radical formation (respiratory burst) in mononuclear phagocytes; format: cell-based; details: FIG. 1
[4] = tested on: NK cells; assay: Protection of NK cells from apoptosis inflicted by mononuclear phagocytes; format: cell-based, human; details: FIG. 2
Method: The ability of N-α-MH to protect NK cells from apoptosis inflicted by mononuclear phagocytes was evaluated. Cells were prepared as described by Hellstrand et al., J. Immunol., vol. 153, pp 4940-7, and mixtures of mononuclear phagocytes and NK cells were incubated overnight with HDC or N-α-MH at indicated final concentrations in 96-well microplates. Thereafter, cells were recovered and NK cells were analyzed for apoptosis (forward and side scatter) as described in Betten et al., J. Clin. Invest. Vol. 108, pp 1221-8 (hereby incorporated by reference in its entirety). FIG. 2 plots the results of six similar experiments.

[5] = tested on: NK cells; assay: CD69 expression on NK cells exposed to IL-2; format: cell-based; details: with human recombinant IL-2 50 U/ml, overnight; FIG. 3
Method: Three separate experiments were performed as described above with the addition of human recombinant IL-2 (50 U/ml) during the overnight incubation. The experiments were initiated with the aim at clarifying whether N-α-MH synergizes with IL-2 to activate NK cells in a fashion similar to HDC. The activation of NK cells by IL-2 was measured as the capacity of these cells to express the cell surface activation antigen CD69 (See, generally Hellstrand et al. JI 1994).

[6] = target: H2 receptor (Homo sapiens, UniProt P25021); details: Saitoh et al., Gut 2002; cited from earlier work
[7] = target: H1 receptors (Homo sapiens, UniProt P35367); details: cited from earlier work
Sequence of H1 receptors (P35367 whole entry): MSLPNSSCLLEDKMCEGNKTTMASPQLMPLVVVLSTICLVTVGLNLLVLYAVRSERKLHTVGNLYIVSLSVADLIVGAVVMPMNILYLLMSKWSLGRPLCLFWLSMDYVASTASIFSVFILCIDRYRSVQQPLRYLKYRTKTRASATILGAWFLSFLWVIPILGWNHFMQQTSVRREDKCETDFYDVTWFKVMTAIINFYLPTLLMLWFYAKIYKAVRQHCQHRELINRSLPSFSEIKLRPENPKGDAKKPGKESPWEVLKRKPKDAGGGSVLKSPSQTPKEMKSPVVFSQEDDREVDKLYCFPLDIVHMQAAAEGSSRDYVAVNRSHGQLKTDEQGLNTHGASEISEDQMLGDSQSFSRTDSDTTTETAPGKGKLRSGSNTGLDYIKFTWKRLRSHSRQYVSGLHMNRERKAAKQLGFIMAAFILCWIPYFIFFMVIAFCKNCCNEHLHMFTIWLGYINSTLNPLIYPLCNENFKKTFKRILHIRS

Sequence of H2 receptor (P25021 whole entry): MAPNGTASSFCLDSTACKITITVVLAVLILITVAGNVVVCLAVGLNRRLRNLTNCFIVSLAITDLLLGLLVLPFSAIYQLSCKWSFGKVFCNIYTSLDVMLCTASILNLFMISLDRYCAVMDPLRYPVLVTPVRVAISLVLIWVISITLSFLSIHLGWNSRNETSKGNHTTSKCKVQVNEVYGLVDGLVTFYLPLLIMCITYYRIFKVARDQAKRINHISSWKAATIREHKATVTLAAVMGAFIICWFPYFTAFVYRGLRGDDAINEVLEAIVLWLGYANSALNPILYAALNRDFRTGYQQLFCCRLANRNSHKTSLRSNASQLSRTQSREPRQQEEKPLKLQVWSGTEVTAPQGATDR

## Cl.Cl.NCCc1c[nH]cn1 [HDC, histamine dihydrochloride]
[1]; 50 mg/kg
  tumor weight (wet lung weight at day 14) vs control mice: significantly reduced tumor weight
[2]
  half life: five

## CNCCc1c[nH]cn1 [N-α-MH, N-alpha-methyl-histamine]
[3]; 5 min preincubation, then fMLF
  inhibition of oxygen radical production: potent inhibitor of oxygen radical production
[3]; in vitro
  maximal response in terms of oxygen radical inhibition, compared with HDC: at least comparable to HDC
[4]; Homo sapiens, overnight incubation with mononuclear phagocytes, six experiments, read-out: ED50 for protection of NK cells
  EC50: 2200 nM
[4]; in vitro
  protection of NK cells from apoptosis, compared with HDC: equally potent and effective at protecting NK cells from apoptosis as HDC
[5]
  expression of CD69 on NK cells: synergized with IL-2 to induce expression of CD69 on NK cells
[1]; 5 mg/kg N-α-MH equal to 50 mg/kg histamine
  potency relative to HDC in reducing tumor weight in vivo: about 10 times
[1]; 5 mg/kg
  tumor weight (wet lung weight at day 14) vs control mice: significantly reduced tumor weight
[1]; 5 mg/kg, 14 days after inoculation, FIG. 5
  extent of tumor reduction (lung metastases) compared with HDC at 50 mg/kg: about equal
[1]; 50 mg/kg
  tumor weight (wet lung weight at day 14) vs control mice: significantly reduced tumor weight
[1]; 50 mg/kg, 14 days after inoculation, FIG. 5
  number of melanoma lung metastases vs control mice: significantly less lung metastases than control mice
[1]; FIG. 5
  potency relative to HDC in reducing melanoma metastasis in vivo: approximately 10 times
[1]; mouse, in vivo
  potency relative to HDC in reducing tumor formation in vivo: approximately 10 times
[6]
  potency in stimulating cAMP production via the H2 receptor, compared with histamine: significantly more potent than histamine
[7]
  activity at H1 receptors: little or no activity at H1 receptors

Reference: patent US20120039844A1, “COMPOSITION AND USE OF N-ALPHA-METHYLHISTAMINE DIHYDROCHLORIDE FOR THE REDUCTION OF OXYGEN RADICAL FORMATION” (priority 2009, published 2012)
